Results as given in patent US20030148269A1, “Centrifugally-enhanced method of determining ligand/target affinity” (priority 1999, published 2003).
Read-outs that look alike come from different tables or passages of the source.

Assays:
[1] = biological target: T1, erythromycin resistant methylase (Erm-AM) (Streptococcus pneumoniae, UniProt P21236); type: binding; details: 25-compound library, mass spectrometry of five fractions, with Erm AM vs buffer only
T1 construct: made in house; host or cells: E. coli BL21(DE3)/pV4, pET-24(+)
T1 sequence (P21236 whole entry, change not shown): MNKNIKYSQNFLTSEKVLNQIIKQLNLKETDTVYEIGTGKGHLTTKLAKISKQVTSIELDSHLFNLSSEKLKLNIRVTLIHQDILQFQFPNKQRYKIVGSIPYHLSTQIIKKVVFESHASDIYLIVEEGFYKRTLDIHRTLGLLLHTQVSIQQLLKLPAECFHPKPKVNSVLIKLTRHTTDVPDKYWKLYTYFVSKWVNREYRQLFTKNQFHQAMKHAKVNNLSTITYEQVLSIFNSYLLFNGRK
Procedure: (§1) Proteins and protein fragments were isolated from recombinant material produced in E. coli as described in detail below. Proteins and protein fragments were dialyzed into standard buffers comprising either a) a mixture of 20 mM ammonium bicarbonate and 1 mM sodium azide, the pH adjusted to pH 7.2 by the addition of acetic acid, or b) 50 mM Tris-HCl, 30 mM KCl, 10 mM magnesium acetate, 10 mM 2-mercaptoethanol, 1 mM sodium azide, and 10% glycerol, pH adjusted to 7.8. In the case of the first buffer system, additional ingredients, specific to each protein, were added to the buffer mixture which included 5 mM 2-mercaptoethanol for erythromycin resistant methylase (Erm-AM), and both 5 mM 2-mercaptoethanol and 10 mM calcium chloride for the stromelysin catalytic domain (SCD). Initial protein or protein fragment concentrations ranged between 100 μM and 1 mM.
(§2) Test compounds were made up in concentrated solutions in dimethyl sulfoxide and diluted into the protein or protein fragment buffer solutions such that the final concentration of dimethyl sulfoxide in the buffer solutions was 1% volume/volume.
The compounds were added to the protein or buffer solutions in 7 mm×20 mm polycarbonate centrifuge tubes, mixed by vortexing, and placed in the centrifuge. Each mixture was then subjected to centrifugation at a speed and for a period of time sufficient to clear the solution of macromolecular target, but not of ligand. Centrifugation was carried out either in a Model TL-100 ultracentrifuge at 100,000 rpm using a TLA-100 rotor, or in a Model L-70 ultracentrifuge at 42,000 rpm using a type 42.2 rotor. (Both centrifuges are manufactured by Beckman Instruments, 1050 Page Mill Road, Palo Alto, Calif. […], USA.)
Following centrifugation, the tubes were removed from the rotor and the tube contents divided into equal volume fractions. Any reasonable number of fractions may be employed; typically four or five fractions are used. To take the fractions, a pipette was carefully inserted into the liquid column in the sample tube to a point just below the liquid meniscus. […] The fractions were individually dispensed into microfuge tubes for analysis.
Mass spectrometric analysis of the samples was performed using either electrospray ionization (ESI) or atmospheric pressure chemical ionization (APCI) techniques. The ESI technique employed either a Model TSQ-700 or a Model LCQ mass spectrometer, and the APCI technique employed a Model LCQ mass spectrometer (both instruments manufactured by the Finnigan Corporation, 355 River Oaks Parkway, San Jose, Calif. 95134, USA).
For ESI analysis, fraction samples were diluted 1:5 with 50% aqueous acetonitrile, leaving the protein or protein fragment in solution. Ten-microliter aliquots, each representing about 10% of the sample, were introduced individually into the instrument by flow injection using 50% aqueous acetonitrile as the carrier. For initial studies with APCI, fractions were likewise diluted 1:5 with 50% aqueous acetonitrile. […] To reduce this background, subsequent samples analyzed by the APCI technique were diluted 1:5 with neat acetonitrile which caused the proteins or protein fragments to release their bound test compounds and precipitate. Sample solutions were then clarified by centrifugation in a microfuge for five minutes prior to analysis by APCI.

[2] = Solubility in the centrifuge carrier solvent (buffer), spun without protein; type: physicochemical
Procedure: as §1
Test compounds were made up in concentrated solutions in dimethyl sulfoxide and diluted into the protein or protein fragment buffer solutions such that the final concentration of dimethyl sulfoxide in the buffer solutions was 1% volume/volume. As a result, each compound in the mixture of test compounds had equal access to available binding sites on the target molecule.
The analysis was carried out with a 25-compound library using the spin-screen method of the present invention with the compound concentration gradients being determined by mass spectrometry. Sample preparation, centrifugation, analysis by mass spectrometry, and data analysis were according to the techniques described above under the heading “General Methodology.” The results are shown in FIGS. 3A and 3B. The figures represent planar cuts of the three-dimensional surface contour plot defined by the three axes: m/z, sample fraction, and mass spectral signal intensity. The planar cuts are taken at comparatively high values constant values of m/z. That is to say, at m/z signal levels which detected only the most strongly binding ligands in the 25-compound library.
The analysis was carried out with a 25-compound library using the spin-screen method of the present invention with the compound concentration gradients being determined by mass spectrometry. Sample preparation, centrifugation, analysis by mass spectrometry, and data analysis were according to the techniques described above under the heading “General Methodology.” The results are presented in FIGS. 5A and 5B.

[3] = biological target: T2, stromelysin catalytic domain (SCD) (Homo sapiens, UniProt P08254); test: Affinity (Ki) for SCD previously determined by another method; type: binding
Target sequence in this assay (P08254 100-273): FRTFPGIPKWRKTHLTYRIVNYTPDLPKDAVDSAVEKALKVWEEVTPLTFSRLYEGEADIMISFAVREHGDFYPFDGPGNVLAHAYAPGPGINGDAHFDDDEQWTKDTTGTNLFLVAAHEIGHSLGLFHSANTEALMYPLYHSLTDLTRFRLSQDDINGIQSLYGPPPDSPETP

[4] = biological target: T2, stromelysin catalytic domain (SCD); test: Spin-screen (centrifugation) affinity binding to SCD, concentration gradients by HPLC; parameters: coding for amino acid residues 81-256 plus an initiating methionine aminoacyl residue; initiating methionine (N); made in house; host or cells: E. coli BL21(DE3)/pLysS, plasmid pETST-81-256 (pET3d); details: 100 μM ligand, 100 μM SCD; HPLC of five fractions; with SCD vs buffer only
Procedure: as §1, §2
Target sequence in this assay (P08254 98-272): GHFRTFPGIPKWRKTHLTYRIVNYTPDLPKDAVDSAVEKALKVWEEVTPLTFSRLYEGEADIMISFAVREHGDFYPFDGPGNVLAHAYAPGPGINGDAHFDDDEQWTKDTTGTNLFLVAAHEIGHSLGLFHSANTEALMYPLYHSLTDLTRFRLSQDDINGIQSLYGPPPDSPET
The compounds were added to the protein or buffer solutions in 7 mm×20 mm polycarbonate centrifuge tubes, mixed by vortexing, and placed in the centrifuge. […]

[5] = biological target: yeast ribosomes isolated from Saccharomyces cerevisiae; test: spin-screen: centrifugation with yeast ribosomes, GFP fluorescence in each of five fractions
[6] = buffer with 1% dimethyl sulfoxide

Compound | Binding to Erm AM from concentration gradient after centrifugation [1] | fraction of total fluorescence (fraction of total fluorescence) [5] | further results
O=C(O)c1ccccc1C(=O)OC(c1ccccc1)c1cccc(Cl)c1 (centres unmarked) [1,2-benzenedicarboxylic acid, mono[(3-chlorophenyl)phenylmethyl] ester] | bound strongly |  | Binding to Erm AM from concentration gradient after centrifugation ([1]; mono [(3-chloro-phenyl)phenylmethyl] ester): bind to Erm AM
Nc1nc(NC2CCCCC2)nc(-c2ccc(O)cc2)n1 [4-[4-amino-6-(cyclohexylamino)-1,3,5-triazin-2-yl]phenol] | strongly bind |  | Solubility in the carrier solvent [2]: soluble
O=C(Nc1ccc(C(=O)O)cc1)Nc1cccc(C(F)(F)F)c1 [4-[[[[3-(trifluoromethyl)phenyl]amino]-carbonyl]amino]benzoic acid] | bound weakly |  | Binding to Erm AM from concentration gradient after centrifugation ([1]; listed as 4-[[[(3-trifluoromethyl)-phenyl]amino]carbonyl]amino]benzoic acid): bind to Erm AM
Nc1cc(Cl)c(S(N)(=O)=O)cc1S(N)(=O)=O [4-amino-6-chloro-1,3benzenesulfonamide] | medium binding |  | Solubility in the carrier solvent [2, 6]: soluble; Binding to Erm AM from concentration gradient after centrifugation ([1]; listed as 4-amino-6-chloro-1,3-benzenesulfonamide): bind to Erm AM
O=c1cc(O)c2ccccc2n1-c1ccc(OCc2ccccc2)cc1 [4-hydroxy-1-[4-(phenylmethoxy)phenyl]-2(1H)-quinoline] | strongly bound |  | Solubility in the carrier solvent [2, 6]: soluble; Binding to Erm AM from concentration gradient after centrifugation ([1]; listed as 4-hydroxy-1-[4-(phenylmethoxy)-phenyl]-2(1H)-quinoline): bind to Erm AM
N#Cc1ccc(-c2ccc(O)cc2)cc1 [4′-hydroxy-1,1-biphenyl-4-carbonitrile] |  |  | Ki [3]: ~1000 µM; Binding to SCD from concentration gradient after centrifugation [4]: binds weakly
Nc1nc(NC2CCCCC2)nc(N2CCCCC2)n1 [N-cyclohexyl-6-(1-piperidinyl)-1,3,5-triazine-2,4-diamine] | strongly bind |  | Solubility in the carrier solvent [2]: soluble; Binding to Erm AM from concentration gradient after centrifugation ([1]; listed as m/z=277): bound more strongly to Erm-AM than the compound at m/z=286
CN(CCCc1c(O)cc(Cl)cc1Cl)c1nc(N)nc(NC2CCCCC2)n1 [N′cyclohexyl-N-[3-(2,4-dichloro-6-hydroxyphenyl)propyl]-N-methyl-1,3,5triazine-2,4,6-triamine] | strongly bind |  | Solubility in the carrier solvent [2]: insoluble
GFP-EF3 fusion protein GFP-980-1008 |  | 0.2 | 
GFP-EF3 fusion protein GFP-980-1008:1025-1031 |  | 0.2 | 
GFP-EF3 fusion protein GFP-980-1013 |  | 0.2 | 
GFP-EF3 fusion protein GFP-980-1019 |  | 0.2 | 
GFP-EF3 fusion protein GFP-980-1025 |  | 0.2 | 
N-[3-(2,4-dichloro-6-hydroxyphenyl)propyl]-N′-(2,3-dihydro-1H-inden-2-yl) | strongly bind |  | Solubility in the carrier solvent [2]: insoluble
